ChEMBL document CHEMBL1157196, “Structure-based discovery of a novel non-peptidic small molecular inhibitor of caspase-3” (Bioorg Med Chem, 2008)

Experiments:
Caspase-8 = Caspase-8 (Homo sapiens, UniProt Q14790); experiment: Inhibition of human recombinant caspase 8 preincubated for 10 mins
Caspase-3 = molecular target: T1, Caspase-3 (Homo sapiens, UniProt P42574); experiment: Inhibition of human recombinant caspase 3 preincubated for 10 mins
T1 sequence (P42574 whole entry): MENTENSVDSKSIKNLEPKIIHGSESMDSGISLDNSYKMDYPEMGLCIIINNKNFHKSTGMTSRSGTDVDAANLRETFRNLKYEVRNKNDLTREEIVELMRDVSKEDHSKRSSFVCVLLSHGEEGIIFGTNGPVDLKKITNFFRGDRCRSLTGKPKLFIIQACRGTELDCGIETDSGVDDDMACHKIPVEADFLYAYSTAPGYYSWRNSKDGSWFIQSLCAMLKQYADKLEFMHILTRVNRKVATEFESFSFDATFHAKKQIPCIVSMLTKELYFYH

Caspase-9 = molecular target: T2, Caspase-9 (Homo sapiens, UniProt P55211); experiment: Inhibition of human recombinant caspase 9 preincubated for 10 mins
T2 sequence (P55211 whole entry): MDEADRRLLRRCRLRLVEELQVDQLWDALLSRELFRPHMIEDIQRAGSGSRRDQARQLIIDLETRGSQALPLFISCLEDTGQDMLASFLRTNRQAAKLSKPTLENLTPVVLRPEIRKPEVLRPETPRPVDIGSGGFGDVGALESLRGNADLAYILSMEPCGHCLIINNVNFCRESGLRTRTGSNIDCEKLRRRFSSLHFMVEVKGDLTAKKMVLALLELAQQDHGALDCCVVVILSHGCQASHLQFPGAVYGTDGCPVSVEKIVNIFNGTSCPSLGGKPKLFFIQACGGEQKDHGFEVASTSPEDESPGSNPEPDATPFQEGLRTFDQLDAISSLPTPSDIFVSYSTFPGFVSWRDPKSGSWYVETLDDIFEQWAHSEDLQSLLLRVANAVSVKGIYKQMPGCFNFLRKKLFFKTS

Caspase-7 = molecular target: T3, Caspase-7 (Homo sapiens, UniProt P55210); experiment: Inhibition of human recombinant caspase 7 preincubated for 10 mins
T3 sequence (P55210 whole entry): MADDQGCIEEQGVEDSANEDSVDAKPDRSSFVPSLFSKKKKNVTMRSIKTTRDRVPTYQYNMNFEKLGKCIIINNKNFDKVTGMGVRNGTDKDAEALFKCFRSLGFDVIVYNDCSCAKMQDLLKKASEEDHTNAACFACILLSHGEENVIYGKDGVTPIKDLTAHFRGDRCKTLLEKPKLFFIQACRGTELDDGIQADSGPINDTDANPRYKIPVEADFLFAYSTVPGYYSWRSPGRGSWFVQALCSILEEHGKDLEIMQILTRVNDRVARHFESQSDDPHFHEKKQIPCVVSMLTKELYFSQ

Sequence of Caspase-8 (Q14790 217-374 limits assumed): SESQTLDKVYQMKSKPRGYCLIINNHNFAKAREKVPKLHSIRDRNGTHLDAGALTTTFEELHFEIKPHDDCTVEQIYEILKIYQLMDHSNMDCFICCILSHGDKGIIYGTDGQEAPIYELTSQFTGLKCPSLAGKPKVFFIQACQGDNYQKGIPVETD
Sequence of Caspase-8 (Q14790 385-479 limits assumed): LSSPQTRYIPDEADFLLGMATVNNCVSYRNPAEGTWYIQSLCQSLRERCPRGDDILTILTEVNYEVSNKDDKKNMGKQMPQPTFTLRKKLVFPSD

An IC50 (Caspase-8) greater than 100 µM, an IC50 (Caspase-3) of 13.6 µM and an IC50 (Caspase-9) of 93 µM were found for `CCOC(=O)COc1cc(C(=O)O)c(O)c2ccccc12` in this work. The IC50 (Caspase-7) was 84.9 µM.
